Test results from patent US9072698B2, “Method for screening anti-cancer compounds inhibiting function of TM4SF5 and anti-cancer composition containing chalcone compounds” (Seoul National University Industry Foundation, priority 2006, dated 2015).
Converted amounts (≈) assume the structure as drawn.

Test system: A-549 (lung carcinoma)
Assay: In vitro cytotoxicity, sulforhodamine B (SRB) method, A-549
Format: cell-based
Conditions: Homo sapiens, A549; A-549, SRB method; read-out: cytotoxicity (ED50) A-549
Procedure, shortened: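 Cells grown in RPMI 1640 with 10% FCS at 37 °C, 5% CO2 were exposed to compounds at 30, 10, 3, 1 and 0.3 μg/ml final, with DMSO below 0.5%. Cytotoxicity was read by the standard NCI sulforhodamine B protein-staining method.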

`Cc1ccc(S(=O)(=O)Nc2ccc(C(=O)/C=C/c3ccc(O)cc3)cc2)cc1` [Compound 1, 4′-(p-toluenesulfonylamino)-4-hydroxychalcone] gave an IC50 of 38 µg/mL (≈ 96.6 µM).
